Experimental data from patent publication US12285034B2, “Human and non-human animal use of microbial anaplerotic oil” (HELIAE DEVELOPMENT, LLC, priority 2017, dated 2025).
Where “and” joins values, the source holds several entries; their conditions need not be identical. Equal entries are not always repeated. Where two headings read alike, the source gives them in different places.

Experiments:
[1] = test system: Aurantiochytrium acetophilum HS399
Description: Respective Erlenmeyer flasks (250 mL) can be inoculated (1% v/v) in triplicates with a 24 hour (h) old culture of A. acetophilum HS399 and incubated in an orbital shaker at 180 rpm and 27° C.
In this implementation, the respective Erlenmeyer flasks contain 100 mL of a medium supplemented with (g/L): dextrose (50), ammonium acetate (2.3), NaCl (12.5), MgSO4 7H2O (2.5), KH2PO4 (0.5), KCl (0.5) and CaCl2 (0.1). This medium also contains trace element solution (5 ml/L) and vitamin solution (1 ml/L). The trace element solution contains (g/L): EDTA di-sodium salt (6), FeCl3 6H2O (0.29), […] (6.84), MnCl2 4H2O (0.86), ZnCl2 (0.06), CoCl2 6H2O (0.026), NiSO4 6H2O (0.052), CuSO4 5H2O (0.002), Na2MoO4H2O (0.005). The vitamin solution contains (mg/L): thiamine (100), biotin (0.5) and cyanocobalamin (0.5). All culture materials can be autoclaved (121° C., 15 min) and media can be filter sterilized before use. […] Daily samples can be collected to analyze the cell dry weight, residual glucose, culture pH, lipid and fatty acid composition of the cultures. Cell dry weights are analyzed by vacuum filtration (0.2 μm) and washed with a solution of ammonium bicarbonate. Residual glucose is analyzed using a colorimetric method based on glucose […] activity. Biomass for lipid analysis can be centrifuged and washed using purified water. The washed biomass can be freeze dried. Total lipids are analyzed using the Folch method (AOAC 996.06) and the FAMES are analyzed by gas chromatography using nonadecanoic (C19:0) acid as an internal standard.

[2] = test system: Aurantiochytrium acetophilum HS399; type: cell-based
Excerpt: In another implementation, a New Brunswick 10 L Bioflo Pro 300 fermenter (Eppendorf) can be used to provide an improvement in the productivity of OCFAs accumulation, previously identified in flasks and bubble columns. In this implementation, a bioprocess can be devised to incorporate one or more portions of one or more techniques described herein. […] As an example, in this implementation, the pH-auxostat is operated at a pH set point of 6.5 to mitigate propionic toxicity. […] A control treatment can be provided […] propionate, to be used as comparison. […] The fermenters are aerated at 0.5 vvm and are maintained at 27° C. under axenic conditions. […] This medium can also contain a trace element solution (25 ml/L) and vitamin solution (5 ml/L). The trace element solution contains (g/L): […] In this example, the fermenter is fed another 5-6 L of a medium containing (g/L): ammonium phosphate (2.5), ammonium hydroxide (29% pure) (15.2), corn syrup DE95 (1143). This medium can also contain a trace element solution (25 ml/L) and a vitamin solution (5 ml/L). In this example, this medium is fed in a DO-stat mode in response to dissolved oxygen values detected above 15% saturation. […] The pH is maintained at 5.8 using NaOH, while the batch ammonia is consumed. The pH can drift to higher values when the residual ammonia is substantially exhausted from the fermenter. […] Culture materials and media can be autoclaved (e.g., 121° C., 15 min) while separating the nitrogen and the carbon source. Foam can be controlled (e.g., automatically) through the addition of (<1 ml/L) Hodag antifoam. […] Residual glucose can be analyzed from culture supernatant (e.g., 5000 g; 5 min) using a colorimetric method based on glucose […] activity. Residual acetate and propionate can be analyzed by HPLC using an acceptable external standard.

[3] = test system: Aurantiochytrium acetophilum HS399; assay: Propionic acid toxicity lethal threshold (Example 8); type: cell-based; details: for lethal threshold, Propionate Treatment (initial propionate): initial propionate approach, chronic, metric CDW, pH 6.4

Compound: CCC(=O)O [Propionate, propionic acid]
- OCFA Productivity [1]: 0.81 ± 0.06 g/L/day
- concentration strongly inhibitory to growth [1]: 10000 µg/mL
- growth inhibitory concentration [1]: 3 g/L
- substantially lethal residual (extracellular) concentration ([1]; pH of 6): ~15 g/L
- OCFA ([1]; propionate 10 g/L, 68 h): 63.1 ± 0.7 % TFA
- Total Fatty Acids ([1]; propionate 10 g/L, 68 h): 42.8 ± 0.9 % DW
- Total Lipids ([1]; propionate 10 g/L, 68 h): 55.3 ± 0.6 % DW
- OCFA ([1]; propionate 10 g/L, 68 h, listed as propionate): 63 % TFA
- Propionate deposition ([1]; propionate printed 1100 g/L): 6.9 ± 0.5%
- effect on growth [2]: slightly inhibited
- OCFAs ([2]; propionic acid titration): 60 % TFA
- accumulated lipids ([2]; propionic acid titration): 70 % DW
- average cumulative productivities ([2]; propionic acid titration): approximately 30 g/L/d
- productivity of OCFAs ([2]; propionic acid titration): 10 g/L/day
- Cell dry weight ([2]; propionic acid titration, 10 L fermenter): 170 g/L
- consumption of propionic per gram of biomass ([2]; total consumed during process): 0.155 g
- lethal threshold, Propionate Treatment (initial propionate) ([3]; listed as Propionic acid): 20 g/L
- lethal threshold, Propionate Treatment (initial propionate) ([3]; listed as propionate): 20 g/L and 30 g/L
- lethal threshold, Propionate Treatment ([3]; pH drift approach, acute, metric OUR, pH 5.3): 2.3 ± 0.1 g/L
- pH at which oxygen uptake rate dropped (tolerance limit) ([3]; residual propionate 2.3-2.4 g/L, pH ramp 7 to 4): 5.3
